# Calls of active or inactive are those of the source. The rule behind the calls is not given here.
# What was measured:
# [1] = biological target: T1, Peroxisome proliferator-activated receptor alpha (Homo sapiens, UniProt Q07869); test: Modulator activity at GAL4-fused human PPARalpha LBD (unknown origin) transfected in African green monkey CV1 cells assessed as receptor transactivation by luciferase reporter gene assay; assay type: cell-based, CV-1
# T1 sequence (Q07869 whole entry): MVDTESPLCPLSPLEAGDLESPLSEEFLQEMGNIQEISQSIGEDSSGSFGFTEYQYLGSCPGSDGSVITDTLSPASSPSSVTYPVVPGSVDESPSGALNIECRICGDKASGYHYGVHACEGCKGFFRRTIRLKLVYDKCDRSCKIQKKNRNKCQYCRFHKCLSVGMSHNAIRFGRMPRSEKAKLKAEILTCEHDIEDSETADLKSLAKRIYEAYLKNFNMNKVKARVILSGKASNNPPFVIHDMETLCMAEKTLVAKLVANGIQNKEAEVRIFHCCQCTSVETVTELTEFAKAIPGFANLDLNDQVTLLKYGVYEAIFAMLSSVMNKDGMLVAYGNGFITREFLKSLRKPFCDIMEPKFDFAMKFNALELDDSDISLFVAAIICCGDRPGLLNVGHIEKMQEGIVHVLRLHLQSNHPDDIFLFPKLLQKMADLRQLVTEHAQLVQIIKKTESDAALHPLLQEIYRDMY
# [2] = biological target: T2, Peroxisome proliferator-activated receptor gamma (Homo sapiens, UniProt P37231); test: Modulator activity at GAL4-fused human PPARgamma LBD (unknown origin) transfected in African green monkey CV1 cells assessed as receptor transactivation by luciferase reporter gene assay; assay type: cell-based, CV-1
# T2 sequence (P37231 whole entry): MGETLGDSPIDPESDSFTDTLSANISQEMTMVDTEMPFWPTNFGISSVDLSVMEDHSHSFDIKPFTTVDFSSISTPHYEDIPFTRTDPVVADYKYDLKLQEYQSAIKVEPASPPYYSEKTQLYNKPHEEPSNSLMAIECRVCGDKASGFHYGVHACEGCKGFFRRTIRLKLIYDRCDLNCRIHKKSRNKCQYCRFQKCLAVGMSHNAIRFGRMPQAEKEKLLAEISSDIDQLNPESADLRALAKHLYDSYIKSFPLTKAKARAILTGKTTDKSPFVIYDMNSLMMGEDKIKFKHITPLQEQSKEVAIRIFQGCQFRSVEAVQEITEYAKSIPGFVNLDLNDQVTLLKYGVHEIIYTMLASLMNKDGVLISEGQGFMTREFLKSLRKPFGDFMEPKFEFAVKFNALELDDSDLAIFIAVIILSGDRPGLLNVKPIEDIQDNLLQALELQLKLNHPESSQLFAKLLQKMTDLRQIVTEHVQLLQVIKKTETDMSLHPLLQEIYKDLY
# [3] = AUC in Wistar rat at 1 mg/kg, iv; assay type: ADME, organism-based; design: dose 1 mg/kg; details: in vivo
# [4] = biological target: T3, Peroxisome proliferator-activated receptor delta (Mus musculus) (UniProt P35396); test: Modulator activity at PPARdelta in […] primary myoblasts derived from DMD patient assessed as upregulation of PDK4 gene expression at 0.4 nM measured after 48 hrs; assay type: tissue-based; details: Primary myotube, filed as modulator
# T3 sequence (whole entry): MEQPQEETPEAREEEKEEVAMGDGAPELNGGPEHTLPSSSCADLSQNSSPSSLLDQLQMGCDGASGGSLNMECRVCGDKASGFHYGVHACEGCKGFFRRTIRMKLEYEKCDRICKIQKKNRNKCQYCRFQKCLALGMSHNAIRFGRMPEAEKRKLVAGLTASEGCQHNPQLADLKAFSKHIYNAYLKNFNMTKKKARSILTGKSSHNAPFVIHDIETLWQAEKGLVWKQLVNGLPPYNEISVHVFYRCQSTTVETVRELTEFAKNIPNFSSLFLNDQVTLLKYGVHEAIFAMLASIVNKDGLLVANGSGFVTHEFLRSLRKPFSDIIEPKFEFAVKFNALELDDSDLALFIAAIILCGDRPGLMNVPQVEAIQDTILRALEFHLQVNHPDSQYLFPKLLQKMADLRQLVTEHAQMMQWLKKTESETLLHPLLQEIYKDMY
# [5] = Volume of distribution at steady state in CD-1 mouse at 1 mg/kg, iv; assay type: ADME, organism-based; details: in vivo, read-out: Vdss
# [6] = Oral bioavailability in CD-1 mouse at 3 mg/kg; assay type: ADME, organism-based; details: in vivo
# [7] = Inhibition of CYP450 (unknown origin); assay type: ADME, Homo sapiens
# Mus musculus = test: In vivo modulator activity at PPARdelta in C57BL/6JRccHsd mouse skeletal muscle assessed as increase in Pdk4 gene expression at 30 to 100 mg/kg, po administered for 9 days and measured at 2 hrs after final administration by qPCR analysis; assay type: functional, organism-based; details: dose 30-100 mg/kg, time 9.0 day
# [8] = Clearance in CD-1 mouse at 3 mg/kg, iv; assay type: ADME, organism-based; details: in vivo
# [9] = AUC in cynomolgus monkey at 10 mg/kg, po; assay type: ADME, organism-based, Macaca fascicularis; design: dose 10 mg/kg; details: in vivo
# [10] = biological target: T3, Peroxisome proliferator-activated receptor delta (Mus musculus); test: Modulator activity at PPARdelta in […] primary myoblasts derived from DMD patient assessed as upregulation of ANGPTL4 gene expression at 0.4 nM measured after 48 hrs; assay type: tissue-based; details: Primary myotube, filed as modulator
# [11] = Cmax in Wistar rat at 3 mg/kg, po; assay type: ADME, organism-based; design: route oral, dose 3 mg/kg; details: in vivo
# [12] = Protein binding in mouse plasma; assay type: ADME, cell-free; details: read-out: PPB (converted)
# [13] = Cmax in cynomolgus monkey at 10 mg/kg, po; assay type: ADME, organism-based, Macaca fascicularis; design: route oral, dose 10 mg/kg; details: in vivo
# [14] = Protein binding in rat plasma; assay type: ADME, cell-free; details: read-out: PPB (converted)
# [15] = Half life in cynomolgus monkey at 10 mg/kg, po; assay type: ADME, organism-based, Macaca fascicularis; details: in vivo
# [16] = Protein binding in human plasma; assay type: ADME, cell-free; details: read-out: PPB
# [17] = Permeability across basolateral to apical side in human Caco2 cells; assay type: ADME, cell-based; details: Caco-2, read-out: permeability
# [18] = AUC in cynomolgus monkey at 3 mg/kg, iv; assay type: ADME, organism-based, Macaca fascicularis; design: dose 3 mg/kg; details: in vivo
# [19] = Half life in CD-1 mouse at 3 mg/kg, iv; assay type: ADME, organism-based; details: in vivo
# [20] = Volume of distribution at steady state in cynomolgus monkey at 3 mg/kg, iv; assay type: ADME, organism-based, Macaca fascicularis; details: in vivo
# [21] = Oral bioavailability in cynomolgus monkey at 10 mg/kg; assay type: ADME, organism-based, Macaca fascicularis; details: in vivo
# [22] = Half life in Wistar rat at 1 mg/kg, iv; assay type: ADME, organism-based; details: in vivo
# [23] = Mutagenicity in Salmonella typhimurium by mini Ames test; assay type: toxicity; details: salmonella enterica subsp. enterica serovar typhimurium
# [24] = biological target: T3, Peroxisome proliferator-activated receptor delta (Mus musculus); test: Modulator activity at PPARdelta in […] primary myoblasts derived from DMD patient assessed as upregulation of PDK4 gene expression at 0.04 nM measured after 48 hrs; assay type: tissue-based; details: Primary myotube
# [25] = biological target: T4, Peroxisome proliferator-activated receptor delta (Mus musculus, UniProt P35396); test: Modulator activity at mouse PPARdelta
# T4 sequence (P35396 whole entry): T3 sequence (whole entry)
# [26] = Half life in CD-1 mouse at 1 mg/kg, iv; assay type: ADME, organism-based; details: in vivo
# [27] = Cmax in CD-1 mouse at 3 mg/kg, po; assay type: ADME, organism-based; design: route oral, dose 3 mg/kg; details: in vivo
# [28] = AUC in CD-1 mouse at 3 mg/kg, po; assay type: ADME, organism-based; design: dose 3 mg/kg; details: in vivo
# [29] = Volume of distribution at steady state in Wistar rat at 1 mg/kg, iv; assay type: ADME, organism-based; details: in vivo, read-out: Vdss
# [30] = Half life in CD-1 mouse at 3 mg/kg, po; assay type: ADME, organism-based; details: in vivo
# [31] = biological target: T3, Peroxisome proliferator-activated receptor delta (Mus musculus); test: Modulator activity at PPARdelta in […] primary myoblasts derived from DMD patient assessed as upregulation of ANGPTL4 gene expression at 0.04 nM measured after 48 hrs; assay type: tissue-based; details: Primary myotube
# [32] = Half life in Wistar rat at 3 mg/kg, po; assay type: ADME, organism-based; details: in vivo
# [33] = Oral bioavailability in Wistar rat at 3 mg/kg; assay type: ADME, organism-based; details: in vivo
# [34] = biological target: T5, Peroxisome proliferator-activated receptor delta (Homo sapiens, UniProt Q03181)
# T5 sequence (Q03181 whole entry): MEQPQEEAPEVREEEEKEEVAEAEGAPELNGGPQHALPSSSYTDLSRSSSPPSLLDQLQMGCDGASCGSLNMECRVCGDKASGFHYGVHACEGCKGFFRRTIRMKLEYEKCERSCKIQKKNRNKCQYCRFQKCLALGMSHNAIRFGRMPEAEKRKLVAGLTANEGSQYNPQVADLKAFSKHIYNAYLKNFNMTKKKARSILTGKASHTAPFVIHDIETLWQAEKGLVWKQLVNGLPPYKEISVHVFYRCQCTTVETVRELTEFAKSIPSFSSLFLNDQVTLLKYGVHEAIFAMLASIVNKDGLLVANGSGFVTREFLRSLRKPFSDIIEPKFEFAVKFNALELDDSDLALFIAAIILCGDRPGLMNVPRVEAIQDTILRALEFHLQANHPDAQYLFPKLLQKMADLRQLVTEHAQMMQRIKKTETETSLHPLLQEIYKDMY
# Description: Modulator activity at GAL4-fused human PPARdelta LBD (128 to residue at C-terminus) transfected in African green monkey CV1 cells assessed as receptor transactivation by luciferase reporter gene assay
# [35] = Clearance in Wistar rat at 1 mg/kg, iv; assay type: ADME, organism-based; details: in vivo
# [36] = Permeability across apical to basolateral side in human Caco2 cells; assay type: ADME, cell-based; details: Caco-2, read-out: permeability
# [37] = AUC in CD-1 mouse at 3 mg/kg, iv; assay type: ADME, organism-based; design: dose 3 mg/kg; details: in vivo
# [38] = Half life in cynomolgus monkey at 3 mg/kg, iv; assay type: ADME, organism-based, Macaca fascicularis; details: in vivo
# [39] = Modulator activity at rat PPARdelta
# [40] = AUC in Wistar rat at 3 mg/kg, po; assay type: ADME, organism-based; design: dose 3 mg/kg; details: in vivo
# [41] = AUC in CD-1 mouse at 1 mg/kg, iv; assay type: ADME, organism-based; design: dose 1 mg/kg; details: in vivo
# CYP2C9 = CYP2C9 (Homo sapiens, UniProt P11712); test: Inhibition of CYP2C9 (unknown origin) at 10 uM relative to control; assay type: ADME
# Sequence of CYP2C9 (P11712 whole entry, the tested form may be a part): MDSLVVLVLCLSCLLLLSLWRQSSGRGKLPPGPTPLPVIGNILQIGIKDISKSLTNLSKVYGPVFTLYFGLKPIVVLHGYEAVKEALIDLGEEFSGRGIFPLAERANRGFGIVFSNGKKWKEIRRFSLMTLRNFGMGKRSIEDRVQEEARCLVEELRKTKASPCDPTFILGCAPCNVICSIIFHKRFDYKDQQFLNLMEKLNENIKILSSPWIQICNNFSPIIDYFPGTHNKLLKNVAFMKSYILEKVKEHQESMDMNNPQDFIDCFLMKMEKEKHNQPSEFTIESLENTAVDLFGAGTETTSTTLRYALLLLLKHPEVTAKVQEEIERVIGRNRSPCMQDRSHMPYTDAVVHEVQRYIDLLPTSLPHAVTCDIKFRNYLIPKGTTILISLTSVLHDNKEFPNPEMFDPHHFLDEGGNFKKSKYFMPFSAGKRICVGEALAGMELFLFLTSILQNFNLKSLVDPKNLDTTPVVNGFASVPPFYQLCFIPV
# [42] = Selectivity index, ratio of EC50 for transactivation of GAL4-fused PPARalpha LBD (unknown origin) transfected in CV1 cells to EC50 for transactivation of GAL4-fused human PPARdelta LBD (128 to residue at C-terminus) transfected in African green monkey CV1 cells by luciferase reporter gene assay
smiles,measurement,setting,value
Cc1cnc(-c2ccc(F)cc2)n1Cc1ccccc1OCCC[C@@H](C)CC(=O)O,EC50,[1],> 100 µM
same,EC50,[2],> 10 µM
Cc1cnc(-c2ccc(OC(F)(F)F)cc2)n1Cc1ccccc1OCCC[C@@H](C)CC(=O)O,AUC,[3],1590 ng·h/mL
same,Activity,[4],98%
same,Vd,[5],5.8 L/kg
same,bioavailability,[6],42%
same,IC50,[7],≥ 10 µM
same,Activity,Mus musculus,Active
same,clearance,[8],25 mL/min/kg
same,AUC,[9],3840 ng·h/mL
same,Activity,[10],98%
same,Cmax,[11],1090 ng/mL
same,fraction unbound,[12],0.005
same,Cmax,[13],1660 ng/mL
same,fraction unbound,[14],0.004
same,half-life,[15],7.3 h
same,fraction unbound,[16],0.001
same,Papp B→A,[17],41 ×10⁻⁶ cm/s
same,AUC,[18],8400 ng·h/mL
same,half-life,[19],3.3 h
same,Vdss,[20],3.2 L/kg
same,bioavailability,[21],13%
same,half-life,[22],6.1 h
same,Activity,[23],Non-Toxic
same,Activity,[24],32%
same,EC50,[25],0.0079 µM
same,half-life,[26],2.7 h
same,Cmax,[27],510 ng/mL
same,AUC,[28],630 ng·h/mL
same,Vd,[29],1.8 L/kg
same,half-life,[30],3.4 h
same,Activity,[31],36%
same,half-life,[32],4.6 h
same,bioavailability,[33],90%
same,EC50,[1],6.9 µM
same,EC50,[34],0.0004 µM
same,clearance,[35],10 mL/min/kg
same,Papp A→B,[36],36 ×10⁻⁶ cm/s
same,AUC,[37],1250 ng·h/mL
same,EC50,[2],> 10 µM
same,t1/2,[38],6.1 h
same,EC50,[39],0.01 µM
same,AUC,[40],4920 ng·h/mL
same,AUC,[41],503 ng·h/mL
same,inhibition at 10 µM,CYP2C9,56%
C/C(=C\COc1ccccc1Cc1c(C)n[nH]c1-c1ccc(-c2ccco2)cc1)CCC(=O)O,clearance,[8],130 mL/min/kg
same,Ratio EC50,[42],>1000
same,half-life,[19],0.4 h
same,EC50,[1],13.1 µM
same,AUC,[37],380 ng·h/mL
same,EC50,[2],5.53 µM
C/C(=C\COc1ccccc1Cc1c(-c2ccc(-c3ccco3)cc2)ncn1C)CCC(=O)O,clearance,[8],300 mL/min/kg
same,Ratio EC50,[42],>1000
same,half-life,[19],0.8 h
same,EC50,[1],0.412 µM
same,EC50,[34],0.0013 µM
same,AUC,[37],170 ng·h/mL
same,EC50,[2],> 10 µM
Cc1cnc(-c2ccc(-c3ccco3)cc2)n1Cc1ccccc1OCCCCCC(=O)O,half-life,[19],0.3 h
same,EC50,[1],6.97 µM
same,EC50,[34],0.0007 µM
same,AUC,[37],180 ng·h/mL
same,EC50,[2],> 10 µM

# Source: ChEMBL document CHEMBL4715826, “Selective PPARδ Modulators Improve Mitochondrial Function: Potential Treatment for Duchenne Muscular Dystrophy (DMD)” (ACS Med Chem Lett, 2018)
